Measurements reported in ChEMBL document CHEMBL3431459, “Roche carnitine palmitoyltransferase modulator screening data (supplementary data associated with the publication CHEMBL2216752)”.
≈ marks a conversion by molar mass, not a printed value.

Tests used:
[1] = SUPPLEMENTARY: Lyophilisation Solubility Assay (LYSA); assay type: physicochemical; details: read-out: Kinetic_solubility
[2] = SUPPLEMENTARY: PAMPA permeability assay; assay type: physicochemical; details: read-out: Permeability
[3] = SUPPLEMENTARY: Lipophilicity (log D) Determination by high-throughput shake-flask; assay type: physicochemical; details: octanol/water
[4] = target: T1, Carnitine O-palmitoyltransferase 1, muscle isoform (Homo sapiens, UniProt Q92523); test: SUPPLEMENTARY: Inhibition of Carnitine palmitoyltransferase 1, muscle isoform; parameters: species or system Muscle tissue
T1 sequence (Q92523 whole entry): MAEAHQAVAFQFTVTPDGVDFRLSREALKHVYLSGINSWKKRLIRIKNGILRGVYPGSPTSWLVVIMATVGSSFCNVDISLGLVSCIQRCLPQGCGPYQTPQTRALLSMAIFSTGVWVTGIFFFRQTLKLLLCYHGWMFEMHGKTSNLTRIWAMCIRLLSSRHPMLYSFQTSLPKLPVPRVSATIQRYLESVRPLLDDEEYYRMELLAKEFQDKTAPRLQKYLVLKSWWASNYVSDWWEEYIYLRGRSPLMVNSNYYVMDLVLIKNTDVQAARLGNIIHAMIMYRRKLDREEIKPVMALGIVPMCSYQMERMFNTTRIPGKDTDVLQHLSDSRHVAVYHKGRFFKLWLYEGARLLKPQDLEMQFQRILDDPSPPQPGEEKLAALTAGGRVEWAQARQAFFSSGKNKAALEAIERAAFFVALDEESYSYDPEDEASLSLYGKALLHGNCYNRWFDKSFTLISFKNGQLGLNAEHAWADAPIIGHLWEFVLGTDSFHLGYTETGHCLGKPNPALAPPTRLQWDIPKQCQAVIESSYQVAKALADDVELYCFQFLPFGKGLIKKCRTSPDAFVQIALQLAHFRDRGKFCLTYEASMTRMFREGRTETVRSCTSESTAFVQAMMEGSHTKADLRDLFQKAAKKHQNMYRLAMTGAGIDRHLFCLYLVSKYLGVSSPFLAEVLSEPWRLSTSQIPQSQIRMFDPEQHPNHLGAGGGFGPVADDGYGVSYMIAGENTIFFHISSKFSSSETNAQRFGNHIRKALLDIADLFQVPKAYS

[5] = target: T2, Carnitine O-palmitoyltransferase 2, mitochondrial (Rattus norvegicus, UniProt P18886); test: (§1) SUPPLEMENTARY: Inhibition of Carnitine palmitoyltransferase 2
T2 sequence (P18886 whole entry): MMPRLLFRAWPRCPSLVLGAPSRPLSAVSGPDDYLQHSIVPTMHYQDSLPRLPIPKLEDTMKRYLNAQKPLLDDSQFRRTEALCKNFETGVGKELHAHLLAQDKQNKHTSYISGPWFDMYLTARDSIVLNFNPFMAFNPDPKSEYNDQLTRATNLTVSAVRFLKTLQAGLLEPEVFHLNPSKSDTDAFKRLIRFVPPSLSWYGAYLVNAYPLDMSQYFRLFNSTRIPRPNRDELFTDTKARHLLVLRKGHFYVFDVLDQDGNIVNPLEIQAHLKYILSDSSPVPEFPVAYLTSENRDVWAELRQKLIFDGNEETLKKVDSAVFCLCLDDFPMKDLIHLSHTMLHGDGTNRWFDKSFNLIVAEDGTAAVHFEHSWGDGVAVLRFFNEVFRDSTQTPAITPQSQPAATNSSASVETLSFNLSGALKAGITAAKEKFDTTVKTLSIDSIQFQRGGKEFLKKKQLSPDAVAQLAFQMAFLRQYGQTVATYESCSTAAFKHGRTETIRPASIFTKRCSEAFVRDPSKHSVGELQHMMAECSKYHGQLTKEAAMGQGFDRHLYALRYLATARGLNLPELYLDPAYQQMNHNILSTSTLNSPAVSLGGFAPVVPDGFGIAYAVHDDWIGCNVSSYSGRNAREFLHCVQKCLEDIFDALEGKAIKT

[6] = target: T3, Carnitine O-palmitoyltransferase 2, mitochondrial (Homo sapiens, UniProt P23786); test: as §1
T3 sequence (P23786 whole entry): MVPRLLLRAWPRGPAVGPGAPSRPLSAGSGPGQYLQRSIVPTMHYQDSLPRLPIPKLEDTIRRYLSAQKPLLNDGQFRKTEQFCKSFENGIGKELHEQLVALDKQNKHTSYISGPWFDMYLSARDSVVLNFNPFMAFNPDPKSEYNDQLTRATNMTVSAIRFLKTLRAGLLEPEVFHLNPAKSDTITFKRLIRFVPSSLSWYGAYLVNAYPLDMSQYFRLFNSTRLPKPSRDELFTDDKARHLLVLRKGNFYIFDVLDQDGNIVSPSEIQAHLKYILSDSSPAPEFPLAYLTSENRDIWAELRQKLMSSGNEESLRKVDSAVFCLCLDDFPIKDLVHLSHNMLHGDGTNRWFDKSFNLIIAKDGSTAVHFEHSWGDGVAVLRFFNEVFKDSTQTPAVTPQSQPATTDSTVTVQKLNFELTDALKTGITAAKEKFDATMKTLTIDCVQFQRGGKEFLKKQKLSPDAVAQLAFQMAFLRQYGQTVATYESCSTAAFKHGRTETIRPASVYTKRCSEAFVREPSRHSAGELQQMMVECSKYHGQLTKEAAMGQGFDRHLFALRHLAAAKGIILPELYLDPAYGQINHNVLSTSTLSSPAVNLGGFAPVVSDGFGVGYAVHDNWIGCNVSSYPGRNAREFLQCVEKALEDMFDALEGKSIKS

[7] = target: T4, Carnitine O-palmitoyltransferase 1, liver isoform (Homo sapiens, UniProt P50416); test: (§2) SUPPLEMENTARY: Inhibition of Carnitine palmitoyltransferase 1, liver isoform
T4 sequence (P50416 whole entry): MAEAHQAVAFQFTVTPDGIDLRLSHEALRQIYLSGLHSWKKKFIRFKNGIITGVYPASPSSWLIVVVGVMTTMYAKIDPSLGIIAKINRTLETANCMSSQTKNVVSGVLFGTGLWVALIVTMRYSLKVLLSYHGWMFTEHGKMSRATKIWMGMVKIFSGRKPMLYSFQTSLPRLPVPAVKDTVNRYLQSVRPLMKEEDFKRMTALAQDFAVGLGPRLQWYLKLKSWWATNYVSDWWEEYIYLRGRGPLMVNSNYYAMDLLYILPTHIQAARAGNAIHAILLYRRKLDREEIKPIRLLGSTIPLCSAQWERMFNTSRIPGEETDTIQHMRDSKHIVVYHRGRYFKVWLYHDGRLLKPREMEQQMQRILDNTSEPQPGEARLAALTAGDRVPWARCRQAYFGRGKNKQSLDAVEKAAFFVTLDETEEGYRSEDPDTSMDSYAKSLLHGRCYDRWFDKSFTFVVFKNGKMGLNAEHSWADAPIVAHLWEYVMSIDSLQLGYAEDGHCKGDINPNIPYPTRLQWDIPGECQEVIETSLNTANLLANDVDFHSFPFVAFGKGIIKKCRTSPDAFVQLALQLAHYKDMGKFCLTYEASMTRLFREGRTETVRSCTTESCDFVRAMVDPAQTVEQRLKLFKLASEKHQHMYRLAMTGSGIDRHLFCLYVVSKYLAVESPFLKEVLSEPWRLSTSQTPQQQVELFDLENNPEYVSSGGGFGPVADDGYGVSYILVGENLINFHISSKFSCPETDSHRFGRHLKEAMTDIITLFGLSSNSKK

[8] = target: T5, Carnitine O-palmitoyltransferase 1, liver isoform (Rattus norvegicus, UniProt P32198); test: as §2
T5 sequence (P32198 whole entry): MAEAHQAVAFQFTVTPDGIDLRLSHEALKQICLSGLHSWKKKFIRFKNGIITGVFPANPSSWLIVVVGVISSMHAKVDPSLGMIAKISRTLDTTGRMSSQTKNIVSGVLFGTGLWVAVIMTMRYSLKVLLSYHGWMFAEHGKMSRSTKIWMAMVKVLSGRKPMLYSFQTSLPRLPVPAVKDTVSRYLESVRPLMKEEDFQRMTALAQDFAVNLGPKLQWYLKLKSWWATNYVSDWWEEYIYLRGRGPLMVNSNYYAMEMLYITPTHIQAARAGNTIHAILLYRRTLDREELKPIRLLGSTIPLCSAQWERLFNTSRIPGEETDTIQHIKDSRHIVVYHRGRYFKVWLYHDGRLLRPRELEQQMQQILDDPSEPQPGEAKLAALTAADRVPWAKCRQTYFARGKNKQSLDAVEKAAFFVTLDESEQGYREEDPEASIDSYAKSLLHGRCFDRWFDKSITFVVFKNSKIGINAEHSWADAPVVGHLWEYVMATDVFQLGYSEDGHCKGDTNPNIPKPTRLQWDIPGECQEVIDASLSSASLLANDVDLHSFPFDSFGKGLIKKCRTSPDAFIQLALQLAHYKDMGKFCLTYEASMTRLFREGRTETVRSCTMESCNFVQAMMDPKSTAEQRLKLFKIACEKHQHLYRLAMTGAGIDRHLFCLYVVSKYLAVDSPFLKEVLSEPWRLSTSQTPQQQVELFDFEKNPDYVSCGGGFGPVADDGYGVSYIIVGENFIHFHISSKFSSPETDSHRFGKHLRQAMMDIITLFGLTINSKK

| SMILES | solubility kinetic [1] [µg/mL] | Papp [2] [×10⁻⁶ cm/s] | logD [3] | IC50 [4] [nM] | IC50 [5] [nM] | IC50 [6] [nM] | IC50 [7] [nM] | IC50 [8] [nM] |
| --- | --- | --- | --- | --- | --- | --- | --- | --- |
| COc1ccc(Cl)cc1S(=O)(=O)N1CCS(=O)(=O)c2ccc(C(=O)Nc3ccc(C(=O)O)c(Cl)c3)cc21 | 45 (≈ 76.9 µM) | 0.06 | -0.37 | 8030 | 15700 | 5560 | 204 | 103 |
| COc1ccc(Cl)cc1S(=O)(=O)N1COc2c(F)cc(C(=O)Nc3ccc(C(=O)O)c(F)c3)cc21 | 59 (≈ 112 µM) | 1.87 | 0.63 | 4930 | 10500 | 1950 | 61.7 | 84.4 |
| COc1ccc(Cl)cc1S(=O)(=O)N1CCCCc2ccc(C(=O)Nc3nc(CC(=O)O)cs3)cc21 | 216 (≈ 403 µM) | 3.46 | 0.54 | 602 | > 100000 | > 100000 | 47.2 | 17 |
| COc1ccc(Cl)cc1S(=O)(=O)N1CC[S+]([O-])c2ccc(C(=O)Nc3ccc(C(=O)O)cc3)cc21 (stereo not given) | 34 (≈ 63.6 µM) | 0.12 | -0.34 | 17200 | 55600 | 2530 | 94.1 | 36.8 |
| COc1ccc(Cl)cc1S(=O)(=O)N1CCNc2ccc(C(=O)Nc3ccc(C(=O)O)c(F)c3)cc21 | 58 (≈ 112 µM) | 0.23 | 0.07 | 6420 | > 100000 | 41600 | 112 | 162 |
| Cc1cccc(S(=O)(=O)N2CCOc3ccc(C(=O)Nc4nc(CC(=O)O)cs4)cc32)c1 | > 631 | 3.08 | 0.14 | 1080 | > 100000 | > 100000 | 56.1 | 55.2 |
| N#Cc1cccc(-c2nc([C@H]3CCCCN3C(=O)COc3ccccc3)no2)c1 | < 1 | 3.83 | 3.17 | > 100000 | > 100000 | 15600 | 84.8 | 412 |
| O=C1Cc2ccc(-c3n[nH]c([C@H]4CCCCN4C(=O)COc4ccccc4)n3)cc2N1 | 73 (≈ 175 µM) | 3.29 | 2.35 | > 100000 | 42900 | 39800 | 211 | 1150 |
| CC(=O)Nc1cccc(-c2n[nH]c([C@H]3CCCCN3C(=O)COc3ccccc3)n2)c1 | 136 (≈ 324 µM) | 2.88 | 2.61 | > 100000 | > 100000 | 98300 | 53.7 | 340 |
| COc1ccc(Cl)cc1Cc1c[nH]c2ccc(C(=O)Nc3ccc(CC(=O)O)cc3)cc12 | 319 (≈ 711 µM) | 0.43 | 0.72 | 491 | > 100000 | > 100000 | 180 | 147 |
